Patent publication US20150157575A1, “Pharmaceutical Formulations Comprising Vilazodone” (Forest Laboratories Holdings Ltd., priority 2013, published 2015)

Legend:
[1] = clinical; parameters: species or system human; conditions: in vivo
Description: An open-label, multiple-dose, single-sequence study to evaluate the effect of steady-state carbamazepine XR, 400 mg once daily, a CYP3A4 substrate and inducer, on the pharmacokinetics of steady-state vilazodone 40 mg tablets once daily, with hardness of more than 10 kp and less than 14 kp, preferably about 12 kp as shown in Table 3 (No Tablet Breakage). Vilazodone was co-administered with carbamazepine XR (extended release formulation). Carbamazepine is an antiepileptic drug approved for the treatment of psychomotor and grand mal seizures is metabolized by CYP3A4, and is a CYP3A4 inducer.
All subjects were healthy, nonsmoking male or female volunteers who were 18-45 (Study 2) years of age. Inclusion and exclusion criteria were typical of the criteria used in pharmacokinetic studies in healthy volunteers as known in the art. Inclusion criteria used included agreement to use an effective measure of contraception, body mass index (BMI)>18 and ≦30 kg/m^2 (BMI=18 allowed), normal or clinically non-significant results on physical examination, medical history, serum chemistry, hematology, and urinalysis; negative hepatitis B antigen and C antibody tests, and negative HIV test at screening. Exclusion criteria included clinically significant electrocardiogram results or QT prolongation, clinically significant disease state, history of alcohol abuse, ingestion of food, drink, or drug that may interfere with CYP enzyme activity (e.g., cruciferous vegetables, caffeine, alcohol), known sensitivity to study drug or other drugs from the same class, and use of prohibited concomitant prescription or over-the counter medications.
All volunteers received 4 treatments (A, B, C, and D) in the same, fixed sequence: Treatment A consisted of vilazodone alone on Days 1-9 and was followed by a 14-day washout, Treatment B was carbamazepine XR alone for 19 days (Days 24-42), Treatment C was vilazodone plus carbamazepine XR for 9 days (Days 43-51), and Treatment D was carbamazepine alone for 3 days (Days 52-54). Once-daily doses of study drug were administered in the morning after breakfast; twice-daily doses were administered in the morning after breakfast and 12 hours later in the evening after dinner Study drug was administered within 30 minutes after the end of the corresponding meal.
Blood samples to determine plasma concentrations of vilazodone, M17 (the metabolite of vilazodone), carbamazepine, and carbamazepine-10,11-epoxide (one of the pharmacologically active metabolites of carbamazepine) were collected into tubes pretreated with K2EDTA. For vilazodone and M17 analyses, blood samples (approximately 6 mL) were collected at pre-dose on Days 1, 7, 8, 49, and 50. […] For the analyses of carbamazepine and carbamazepine-10,11-epoxide, blood samples were collected at pre-dose on Days 24, 40, 41, 49 and 50.
Blood samples were centrifuged at no less than 2500 g for 10 minutes at 4° C. within 30 minutes of the sample draw. Plasma was harvested and transferred to polypropylene tubes and flash frozen in a dry ice bath with isopropyl alcohol or methanol. Samples for vilazodone analyses were stored at approximately −70° C. and analyzed. Samples for carbamazepine analyses were stored at −20° C. and analyzed.
Plasma samples were analyzed for vilazodone, M17, carbamazepine and/or carbamazepine-10,11-epoxide concentrations using liquid chromatography coupled with tandem mass spectrometry (LC/MS/MS). For vilazodone and M17, analytes of interest were detected by electrospray ionization mass spectrometry in the negative ion multiple reaction monitoring mode. The assay was linear in the concentration range of 0.5 to 250 ng/mL for vilazodone and 0.25 to 125 ng/mL for M17.
Based on 50 ìL of human plasma with K2EDTA as the anticoagulant, the lower limit of quantification (LLOQ) was 0.5 ng/mL for vilazodone and 0.25 ng/mL for M17. […]

[2] = Study 2: single-dose pharmacokinetics in severe hepatic impairment and matched healthy controls; conditions: for AUC(0-inf) / Cmax / Tmax / half-life: both, human, plasma, po, 20 mg, vilazodone 20 mg single oral dose; for AUC(0-inf): AUC0-∞
Description: The pharmacokinetics, tolerability, and safety of vilazodone were investigated in two separate trials involving participants with hepatic impairment, compared with healthy controls. An Open-label, parallel-group, single-dose pharmacokinetic studies, a single, oral dose of vilazodone (20 mg with increased hardness) was administered to participants with mild, moderate, or severe hepatic impairment or individually matched controls. Outcomes included pharmacokinetic parameters and safety (vital signs, clinical laboratory evaluations, ECG, and adverse events [AEs]). Plasma samples were analyzed using validated LC/MS/MS methods.
Data from two, open-label, parallel-group, single-dose pharmacokinetic studies investigated single-dose vilazodone (20 mg with increased hardness) in participants with hepatic impairment and normal hepatic function. The first study (Study 1) included participants with mild or moderate hepatic impairment and healthy controls. The second study (Study 2) included participants with severe hepatic impairment or healthy participants. These studies were both designed in accordance with the FDA guidance for evaluation of pharmacokinetics in the presence of hepatic impairment. The differences between the study protocols were minimal, so both methodologies are described together, with any differences noted below.
Participants were men and women, 18 to 70 years of age, with a body mass index (BMI) of 18-42 kg/m^2. Women were not pregnant or breastfeeding and agreed to utilize a medically accepted form of contraception during the study (as did men in Study 2). In Study 2, participants were also required to be non-smokers or light smokers (fewer than 10 cigarettes per day; there was no stipulation in Study 1) and to have a sitting pulse rate of 50-100 bpm at screening and prior to dosing on Day 1. […] Each healthy control was matched with a hepatically impaired participant. Control participants in the Study 1 were matched with a hepatically impaired individual according to age (±10 years), sex, and BMI (±15%). Control participants in Study 2 were matched with a hepatically impaired individual according to age (±5 years), sex, and weight (±10%).
Participants with hepatic dysfunction were classified according to the Child-Pugh hepatic dysfunction staging system as having mild (5-6 points) or moderate (7-9 points) hepatic impairment (Study 1), or severe impairment (10-15 points; Study 2). Participants with severe impairment also had chronic liver disease and/or compensated cirrhosis, as evidenced by liver biopsy, computerized tomography or ultrasonic evidence of hepatic fibrosis, clinical evidence of chronic liver disease, or a colloid shift on a liver-spleen scan. Exclusion criteria included the following: a clinical diagnosis or history of depression; treatment with antidepressants, anxiolytics, psychoactive medications (including herbal supplements), other serotonergic drugs, or drugs that inhibit CYP3A4 (eg, ketoconazole, diltiazem, macrolide antibiotics); a hypersensitivity to vilazodone or other SSRIs or 5-HT agonists; history or evidence of alcohol or substance abuse, cancer, human immunodeficiency virus, hepatitis B (Study 1 and healthy controls, both studies) hepatitis C (healthy controls, both studies), or other clinically significant illnesses or medical conditions. Participants with severe hepatic impairment were excluded if they had bleeding diathesis, advanced ascites requiring large-volume paracentesis within 1 week of dosing, esophageal bleeding within the previous 8 weeks, history of portosystemic shunt or hepatic transplant, or evidence of hepatic encephalopathy, hepatorenal syndrome, or other evidence of rapid hepatic deterioration.
Participants were not allowed to have previously taken vilazodone or participated in any clinical investigation requiring repeated blood draws within 60 days of dosing, or donated blood or plasma within 60 or 30 days, respectively.

[3] = Control matched to Severe Impairment n = 8
[4] = Severe Impairment n = 4 (who did not vomit)

In the case of `NC(=O)N1c2ccccc2C=Cc2ccccc21` [Carbamazepine, carbamazepine], the concentration at 42 day ([1]; both sexes, human, Cavg, ss, Mean (SD)) is reported as 5500 ng/mL and the Tmax ([1]; both sexes, human, tmax, Median (min-max)) is reported as 10 h.

In the case of `N#Cc1ccc2[nH]cc(CCCC(=O)O)c2c1` [M17], the AUC(0-inf) [2, 3] is reported as 51.4 ± 21.4 ng·h/mL, the AUC(0-inf) [2, 4] is reported as 29.9 ± 8.15 ng·h/mL and the Cmax [2, 3] is reported as 1.95 ± 0.56 ng/mL. The Cmax [2, 4] was 1.64 ± 0.56 ng/mL, the Tmax ([2]; Tmax (mean), Control matched to Severe Impairment n = 8) was 6 ± 4.14 h and the Tmax ([2]; Tmax (mean), Severe Impairment n = 4 (who did not vomit)) was 4.25 ± 1.26 h. The Tmax ([2]; Tmax, Median, Control matched to Severe Impairment n = 8) was 5 h, the Tmax ([2]; Tmax, Median, Severe Impairment n = 4 (who did not vomit)) was 4 h and the half-life ([2]; t1/2, Control matched to Severe Impairment n = 8) was 17.4 ± 4.25 h. The half-life ([2]; t1/2, Severe Impairment n = 4 (who did not vomit)) was 17.8 ± 9.57 h, the “ratio of M17 to vilazodone (AUC0-∞)” value ([2]; normal controls) was 0.07 and the “ratio of M17 to vilazodone (AUC0-∞)” value ([2]; severe hepatic impairment) was 0.05. The “mean AUC0-∞ lower than in normal controls” value ([2]; severe impairment (who did not vomit) vs normal controls, vilazodone 20 mg single dose) was “approximately 42%”.

In the case of `NC(=O)N1c2ccccc2C2OC2c2ccccc21` (centres unmarked) [carbamazepine-10,11-epoxide], the “tmax, Median (min-max)” value ([1]; human) is reported as 12.0 h and the “Cavg, ss, Mean (SD)” value [1] is reported as 0.6 (0.2) μg/mL.
